Read-outs that look alike come from different tables or passages of the source.
Tests used:
[1] = tested on: motoneurones of isolated newborn rat spinal cord (NMDA type receptor); assay: depolarizing activity test, isolated newborn rat spinal cord (potential changes in motoneurones recorded from ventral root); details: for minimal effective concentration: read-out: Minimum effective concentration; for activity in the presence of 2-APV or Mg++: measured in the presence of 2APV or Mg++; for Minimum effective concentration, relative activity: relative to L-Glu = 1; for type of activity: spinal cord of a rat; for depolarizing activity, times as potent as L-glutamic acid: rat spinal cord, relative to L-glutamic acid
Description: The methods used for the electrophysiological experiment in the isolated newborn rat spiral cord were essentially similar to those described by Ohtsuka et al. (Nature, 252, 733-734, 1974). The potential changes generated in the motoneurones induced by L-glutamate analogues, namely, (2R,3S,4S)-α-(carboxycyclopropyl)glycine (1) of this invention and one of the stereoisomers, (2S,3R,4S)-α-(carboxycyclopropyl)-glycine (2) were recorded extracellularly from the ventral root with a suction electrode.

[2] = tested on: motoneurones of isolated newborn rat spinal cord (NMDA type receptor); details: newborn rat spinal cord preparation; from Japanese Patent Application No. 129626/88; cited from earlier work
[3] = Fowden et al., Phytochemistry, 8, 437, 1969; cited from earlier work
[4] = isolated newborn rat spinal cord, depolarization recorded extracellularly from ventral root

activity in the presence of 2-APV or Mg++ [1]	Structure (SMILES)	minimal effective concentration [1, 4] [µM]	Minimum effective concentration, relative activity [1]	type of activity [1]	effects caused [3]	also measured
activity disappeared	N[C@H](C(=O)O)[C@@H]1C[C@@H]1C(=O)O [(2), (2S,3R,4S)-α-(carboxycyclopropyl)glycine]	1	100	potent NMDA-type depolarization		depolarizing activity, times more potent than L-glutamate [2]: about 100 times
	N[C@H](C(=O)O)[C@H]1C[C@H]1C(=O)O [(2S,3S,4R)-α-(carboxycyclopropyl)glycine]				hypoglycemia and amesis	
	N[C@H](C(=O)O)[C@H]1C[C@@H]1C(=O)O [(2S,3S,4S)-α-(carboxycyclopropyl)glycine]				hypoglycemia and amesis	
activity disappears	N[C@@H](C(=O)O)[C@H]1C[C@@H]1C(=O)O [Compound (1), (2R,3S,4S)-α-(carboxycyclopropyl)glycine]	0.3	300	N-methyl-D-aspartic acid (NMDA) like activity		depolarizing activity, times as potent as L-glutamic acid [1]: 300 times; depolarizing activity, times as potent as L-glutamic acid ([1]; listed as (2R,3S,4S)-α-(carboxycyclopropyl)glycine): more than 300 times; depolarizing activity compared with NMDA ([1]; relative to NMDA): much more potent than NMDA; depolarizing activity, times as potent as compound (2) ([1]; relative to compound (2)): 3 times
	N[C@@H](CCC(=O)O)C(=O)O [L-Glu, L-glutamic acid]		1			minimal effective concentration ([1]; Rattus norvegicus): 100 µM
